The text below walks through data of patent US8552031B2, “3-ethylidenehydrazino substituted heterocyclic compounds as thrombopoietin receptor activators” (Nissan Chemical Industries, Ltd., priority 2004, dated 2013).

This experiment has as its target T1, human TPO receptor (c-mp1) (Homo sapiens, UniProt P40238).
T1 construct: expressed in transfected cells
T1 sequence (P40238 26-635): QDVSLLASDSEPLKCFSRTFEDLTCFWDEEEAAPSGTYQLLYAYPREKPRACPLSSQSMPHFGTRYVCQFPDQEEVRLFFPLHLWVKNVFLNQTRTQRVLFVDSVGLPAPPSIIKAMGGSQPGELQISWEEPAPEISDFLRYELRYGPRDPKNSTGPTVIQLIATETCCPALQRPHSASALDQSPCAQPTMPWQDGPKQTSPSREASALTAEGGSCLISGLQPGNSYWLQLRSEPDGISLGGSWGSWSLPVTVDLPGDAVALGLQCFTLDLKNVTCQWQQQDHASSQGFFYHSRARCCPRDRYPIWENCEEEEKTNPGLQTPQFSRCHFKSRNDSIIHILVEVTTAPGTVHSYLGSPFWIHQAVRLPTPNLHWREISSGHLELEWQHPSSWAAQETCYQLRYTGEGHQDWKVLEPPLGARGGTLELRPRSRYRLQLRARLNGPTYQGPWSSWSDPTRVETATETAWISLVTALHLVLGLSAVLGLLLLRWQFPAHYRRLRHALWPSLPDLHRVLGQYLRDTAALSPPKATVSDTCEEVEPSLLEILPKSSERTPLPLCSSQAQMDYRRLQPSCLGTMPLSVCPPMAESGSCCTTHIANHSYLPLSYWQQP
In words: Stimulation of proliferation of TPO-dependent cell line UT7/EPO-mpl (WST-8). Particulars: concentration that yields a growth rate corresponding to 50% of the growth of UT-7/EPO-mpl observed in the presence of 10 ng/ml TPO; 4 days incubation; read-out: EC50 (converted). It is filed as cell-based. On the procedure:
The reactivity of the compound of Synthetic Example 4 of the present invention with thrombopoietin (TPO) receptor was assayed using a human leukemic cell line, UT7/EPO-mpl.
UT7/EPO-mpl is a stable transformed cell line obtained by introducing into human leukemic cell line UT7/EPO a vector that induces expression of human TPO receptor (c-mp1) under control of cytomegalovirus immediate-early promoter by the method of Takatoku et al. (J. Biol. Chem., 272:7259-7263 (1997)). […] These two cell lines were subcultured in Iscove's modified Dulbecco's medium (IMDM; GIBCO) containing 10% fetal bovine serum (FBS; Thermo Electron or BioWest) using a CO2 incubator (5% CO2, 37° C.).
The subcultured cells described above were washed twice with phosphate buffered saline (PBS) and suspended in IMDM containing 10% FBS at a cell density of 6×10^4 cells/ml. The cell suspension was transferred to a 96-well tissue culture plate (CORNING) in 100-μl aliquots. Then either TPO (Pepro Tech EC) or the compound of Synthetic Example 4 dissolved in dimethyl sulfoxide (DMSO) was diluted 83-fold with IMDM containing 10% FBS and added to the aforementioned cell suspension in 20-μl aliquots. The cell suspension was incubated in a CO2 incubator (5% CO2, 37° C.) for 4 days. Cell proliferation was assayed using WST-8 reagent (Kishida Chemical Co., Ltd.) according to instructions by the manufacturer. A 10-μl aliquot of 5 mM WST-8 reagent solution was added to each well of the tissue culture plate, and the plate was incubated at 37° C. for 4 h. The formazan pigment generated was detected by measuring the absorbance at 450 nm with a 96-well microplate reader (Nihon Molecular Devices, Spectramax 190).
The compounds of the following Synthetic Examples were tested according to the method of Assay Example 1 to determine the concentration of each compound that yields a growth rate corresponding to 50% of the growth of human leukemic cell line UT-7/EPO-mpl observed in the presence of 10 ng/ml TPO (EC50).

With `COC(=O)C1CCN(C(=S)NN=C(C)c2csc(-c3ccc(Cl)c(Cl)c3)c2O)CC1` [Synthetic Example 1, methyl 1-{1-[5-(3,4-dichlorophenyl)-4-hydroxythiophen-3-yl]-ethylidene-hydrazinothiocarbonyl}-piperidine-4-carboxylate], the EC50 (usually the concentration needed to bring the measured effect to its halfway point) was 63.7 nM.
The value for `CC(=NNC(=S)N1CCC(C(=O)O)CC1)c1csc(-c2ccc(Cl)c(Cl)c2)c1O` [Synthetic Example 2, 1-{1-[5-(3,4-dichlorophenyl)-4-hydroxythiophen-3-yl]-ethylidene-hydrazinothiocarbonyl}-piperidine-4-carboxylic acid] was 6.77 nM.
As for `COC(=O)CNC(=S)NN=C(C)c1csc(-c2ccc(Cl)c(Cl)c2)c1O` [Synthetic Example 3, methyl 2-[(2-{1-[5-(3,4-dichlorophenyl)-4-hydroxythiophen-3-yl]-ethylidene}-hydrazinocarbonothioyl)amino]acetate], the half-maximal effective concentration (EC50) was 55.5 nM.
Regarding `COC(=O)CCNC(=S)NN=C(C)c1csc(-c2ccc(Cl)c(Cl)c2)c1O` [Synthetic Example 5, methyl 3-[(2-{1-[5-(3,4-dichlorophenyl)-4-hydroxythiophen-3-yl]-ethylidene}-hydrazinocarbonothioyl)amino]propionate], the half-maximal effective concentration (EC50) is 67.2 nM.
On to `CC(=NNC(=S)NCCC(=O)O)c1csc(-c2ccc(Cl)c(Cl)c2)c1O` [Synthetic Example 6, 3-[(2-{1-[5-(3,4-dichlorophenyl)-4-hydroxythiophen-3-yl]-ethylidene}-hydrazinocarbonothioyl)amino]propionic acid], for which the EC50 was 32.4 nM.
In the case of `COCCNC(=S)NN=C(C)c1csc(-c2ccc(Cl)c(Cl)c2)c1O` [Synthetic Example 7, 1-(2-{1-[5-(3,4-dichlorophenyl)-4-hydroxythiophen-3-yl]-ethylidene}-hydrazinocarbonothioyl)amino-2-methoxyethane], the EC50 was 66.9 nM.
As to `COC(=O)C1CCN(C(=S)NN=C(C)c2csc(-c3ccc(Br)cc3)c2O)CC1` [Synthetic Example 8, methyl 1-{1-[5-(4-bromophenyl)-4-hydroxy-thiophen-3-yl]-ethylidene-hydrazinothiocarbonyl}-piperidine-4-carboxylate], the EC50 was 50.4 nM.
On to `CC(=NNC(=S)N1CCC(C(=O)O)CC1)c1csc(-c2ccc(Br)cc2)c1O` [Synthetic Example 9, 1-{1-[5-(4-bromophenyl)-4-hydroxy-thiophen-3-yl]-ethylidene-hydrazinothiocarbonyl}-piperidin-4-carboxylic acid], for which the EC50 was 4.77 nM.
As for `CC(=NNC(=S)N1CCC(C(=O)O)CC1)c1csc(-c2ccc(C(F)(F)F)cc2)c1O` [Synthetic Example 10, 1-{1-[4-hydroxy-5-(4-trifluoromethylphenyl)-thiophen-3-yl]-ethylidene-hydrazinothiocarbonyl}-piperidine-4-carboxylic acid], the half-maximal effective concentration (EC50) was 5.73 nM.
For the compound `CC(=NNC(=S)N1CCC(C(=O)O)CC1)c1csc(-c2ccc(OC(F)(F)F)cc2)c1O` [Synthetic Example 11, 1-{1-[5-(4-trifluoromethoxyphenyl)-4-hydroxythiophen-3-yl]-ethylidene-hydrazinothiocarbonyl}-piperidine-4-carboxylic acid], the half-maximal effective concentration (EC50) is 5.95 nM.
With `CC(=NNC(=S)N1CCC(C(=O)O)CC1)c1csc(-c2ccc(Cl)cc2)c1O` [Synthetic Example 12, 1-{1-[5-(4-chlorophenyl)-4-hydroxy-thiophen-3-yl]-ethilidene-hydrazinothiocarbonyl}-piperidine-4-carboxylic acid], the 50% effective concentration (EC50) was 4.79 nM.
In the case of `CC(=NNC(=S)N1CCC(C(=O)O)CC1)c1csc(-c2ccc(C)c(C)c2)c1O` [Synthetic Example 13, 1-{1-[5-(3,4-dimethylphenyl)-4-hydroxythiophen-3-yl]-ethylidene-hydrazinothiocarbonyl}-piperidine-4-carboxylic acid], the concentration for a half-maximal effect (EC50) is 6.02 nM.
For the compound `CC(=NNC(=S)N1CCC(C(=O)O)CC1)c1csc(-c2ccc(C(C)(C)C)cc2)c1O` [Synthetic Example 14, 1-{1-[5-(4-t-butylphenyl)-4-hydroxy-thiophen-3-yl]-ethylidene-hydrazinothiocarbonyl}-piperidine-4-carboxylic acid], the EC50 is 5.66 nM.
Turning to `CC(=NNC(=S)N1CCC(C(=O)O)CC1)c1csc(-c2cccc(Cl)c2)c1O` [Synthetic Example 15, 1-{1-[5-(3-chlorophenyl)-4-hydroxythiophen-3-yl]-ethylidene-hydrazinothiocarbonyl}-piperidine-4-carboxylic acid], the EC50 is 5.94 nM.
Take `CC(=NNC(=S)N1CCC(C(=O)O)CC1)c1nn(C)c(-c2ccc(C(F)(F)F)cc2)c1O` [Synthetic Example 16, 1-{1-[4-hydroxy-1-methyl-5-(4-trifluoromethylphenyl)-1H-pyrazol-3-yl]-ethylidene-hydrazinothiocarbonyl}-piperidine-4-carboxylic acid]: the EC50 is 8.09 nM.
The same measure for `CC(=NNC(=S)N1CCC(C(=O)O)CC1)c1nn(C)c(-c2ccc(Cl)c(Cl)c2)c1O` [Synthetic Example 17, 1-{1-[5-(3,4-dichlorophenyl)-4-hydroxy-1-methyl-1H-pyrazol-3-yl]-ethylidene-hydrazinothiocarbonyl}-piperidine-4-carboxylic acid]: 16.6 nM.
In the case of `CC(=NNC(=S)N1CCCC(C(=O)O)C1)c1csc(-c2ccc(Cl)c(Cl)c2)c1O` (stereo not shown) [Synthetic Example 18, 1-{1-[5-(3,4-dichlorophenyl)-4-hydroxythiophen-3-yl]-ethylidene-hydrazinothiocarbonyl}-piperidine-3-carboxylic acid], the concentration for a half-maximal effect (EC50) was 46.6 nM.
As to `CCN(CC)C(=O)C1CCN(C(=S)NN=C(C)c2csc(-c3ccc(Cl)c(Cl)c3)c2O)CC1` [Synthetic Example 19, 1-{1-[5-(3,4-dichlorophenyl)-4-hydroxythiophen-3-yl]-ethylidene-hydrazinothiocarbonyl}-piperidine-4-carboxylic acid diethylamide], the half-maximal effective concentration (EC50) was 49.3 nM.
On to `CC(=NNC(=S)N1CCC(O)CC1)c1csc(-c2ccc(Cl)c(Cl)c2)c1O` [Synthetic Example 20, 1-{1-[5-(3,4-dichlorophenyl)-4-hydroxythiophen-3-yl]-ethylidene-hydrazinothiocarbonyl}-piperidin-4-ol], for which the EC50 is 6.98 nM.
With `CC(=NNC(=S)N1CCCC(O)C1)c1csc(-c2ccc(Cl)c(Cl)c2)c1O` (stereo not shown) [Synthetic Example 21, 1-{1-[5-(3,4-dichlorophenyl)-4-hydroxythiophen-3-yl]-ethylidene-hydrazinothiocarbonyl}-piperidin-3-ol], the 50% effective concentration (EC50) is 51.8 nM.
The same measure for `CC(=NNC(=S)N1CCC(CO)CC1)c1csc(-c2ccc(Cl)c(Cl)c2)c1O` [Synthetic Example 22, 1-{1-[5-(3,4-dichlorophenyl)-4-hydroxythiophen-3-yl]-ethylidene-hydrazinothiocarbonyl}-piperidine-4-methanol]: 45.8 nM.
Consider `COCCCNC(=S)NN=C(C)c1csc(-c2ccc(Cl)c(Cl)c2)c1O` [Synthetic Example 23, 1-(2-{1-[5-(3,4-dichlorophenyl)-4-hydroxythiophen-3-yl]-ethylidene}-hydrazinocarbonothioyl)amino-3-methoxypropane], for which the 50% effective concentration (EC50) is 76.3 nM.
